Experimental data from patent US20250002492A1, “COMPOSITIONS OF FOLATE ABSORPTION INHIBITORS AND METHODS THEREOF” (THE TEXAS A&M UNIVERSITY SYSTEM, priority 2023, published 2025).

Tests used:
[1] = target: T1, Folate Uptake Transporter (PCFT) in Caco2 cells (Homo sapiens, UniProt Q96NT5); experiment: Folate uptake transporter inhibition in Caco2 cell line ([3H]-folic acid uptake); assay type: cell-based; conditions: for inhibition at 50 µM: Caco-2, pH 5.5, test conc. 50 μM, read-out: Percentage inhibition (%); for effect on folate transport / uptake: Caco-2 cells, 50 μM
T1 construct: These cells express high levels of the PCFT/SLC46A1 receptor; host or cells: Caco-2
T1 sequence (Q96NT5 1-459): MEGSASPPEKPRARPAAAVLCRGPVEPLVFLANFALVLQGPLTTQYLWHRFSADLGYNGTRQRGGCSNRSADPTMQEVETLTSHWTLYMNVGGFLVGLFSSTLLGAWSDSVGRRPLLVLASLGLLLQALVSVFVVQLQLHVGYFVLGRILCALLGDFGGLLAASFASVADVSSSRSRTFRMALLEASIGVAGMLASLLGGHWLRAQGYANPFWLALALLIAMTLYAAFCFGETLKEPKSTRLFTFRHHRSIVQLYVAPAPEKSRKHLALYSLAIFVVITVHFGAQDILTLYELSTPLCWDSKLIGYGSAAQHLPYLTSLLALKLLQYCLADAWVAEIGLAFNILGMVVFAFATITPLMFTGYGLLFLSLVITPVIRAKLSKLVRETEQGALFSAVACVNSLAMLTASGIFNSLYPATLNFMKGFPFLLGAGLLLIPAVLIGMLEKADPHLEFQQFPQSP
Procedure: Cell plates were prepared using Caco-2 cell culture medium consisting of Dulbecco's Modified Eagle's Medium (DMEM) with high glucose and L-glutamine supplemented with: 10% FBS, 1× penicillin-streptomycin mixture and 1×non-essential amino acids (NEAA) and medium was incubated at 37° C., 5% CO2 for 0.5 hour. Plates were prepared for cell seeding. Caco-2 cells from American Type Culture Collection at passage 44 were cultivated in T-75 flasks in a cell culture incubator set at 37° C., 5% CO2, 95% relative humidity. Cells reached 80-90% confluence before detaching and splitting. Cultivated cells in T-75 flasks were rinsed with 5 mL PBS and aspirated off. Then, 3 mL trypsin/EDTA was added, and cells were incubated at 37° C. for approximately 5 minutes or until the cells detached and floated. Trypsin/EDTA was inactivate by adding excess serum containing medium. Cell suspension was removed and transferred to a conical tube and cells were pelleted by centrifugation at 120×g for 5 minutes. Cells were resuspended in seeding medium at a density of 3×10^4 cells/well in 24-well plates. The plate was incubated for 8-10 days. The medium was replaced every other day, beginning no sooner than 48 hours after initial plating.
(§1) The transport buffer (HBSS with 10 mM MES, pH 5.5) was prepared by weighing 1.952 g of MES and 0.35 g sodium hydrogen carbonate and adding into 900 mL of pure water followed by sonication to dissolve the content. Following the transfer of 100 mL of 10×HBSS into the solution. The solution was placed on a stirrer, the pH was slowly adjusted with hydrochloric acid to 5.5, and then the solution was filtered to get HBSS solution (with 10 mM MES, pH 5.5).
The [3H]-folic acid (10 nM) substrate solution was prepared using [3H]-folic acid (1 mCi/ml) diluted with pH 5.5 buffer. Next, the [3H]-folic acid (10 nM) substrate solution+test inhibitor (X μM) and the [3H]-folic acid (10 nM) substrate solution+positive control inhibitor (pemetrexed, 50 μM) were prepared. For the solution without inhibitor, DMSO was diluted with corresponding substrate solution to get the working incubation solution.
The pre-incubation solution was prepared by adding the same final concentration of test compound (X μM) and the known inhibitor (pemetrexed, 50 μM) in pH 5.5 buffer. For the solution without inhibitor, DMSO diluted with in pH 5.5 buffer was used as the vehicle control.
When the 8-10 day Caco-2 cultured cells reached confluence and were differentiated, they were ready to be used for transport studies. The Caco-2 plate was removed from the incubator, and the medium was removed from the 24-well Plates. Next, cells were washed 3 times with 300 μL of pre-warmed pH 5.5 buffer. Then, 300 μL of pre-incubation solution was added into each well and the plate was placed at 37° C. for 30 minutes. The assay was performed in duplicate. After 30 minutes pre-incubation, the pre-incubation solution was aspirated, and 300 μL of pre-warmed working incubation solution was added to start the transporter assay. After 6 minutes incubation, cells were washed by quickly adding/aspirating 300 μL of ice-cold pH 5.5 buffer 4 times. The pH 5.5 buffer was removed and 300 μL of pure water was added into each well. Freeze-thaw in liquid nitrogen and 37° C. incubator was repeated for 3 times to lyse cells. After, centrifugation at 3,300 g was performed for 30 seconds. Next, 50 μL of supernatant was transferred to Isoplate-96 Microplate. 200 μL of scintillation fluid was added to the 50 μL sample and radioactivity was measured by liquid scintillation counting in a MicroBeta 2 scintillation counter for 1 min/sample.
A BCA Kit was used to determine the protein content for each well. Bovine serum albumin at 2, 1, 0.5, 0.25, 0.125, 0.0625, 0.0313, 0.0156, 0.00781 and 0.00391 mg/mL was prepared in Phosphate Buffer Saline (PBS, pH 7.4). 10 μL of supernatant was mixed from the previous step with the same volume of PBS. […]

[2] = target: T1, Folate Uptake Transporter (PCFT) in Caco2 cells; experiment: Folate uptake transporter substrate assessment in Caco2 cell line (compound uptake with and without pemetrexed); assay type: in vitro ADME; conditions: for cell permeability: Caco-2; for Uptake Ratio(−Inhibitor/+Inhibitor): human, Caco-2, 6 min, 1 μM, pH 5.5
Procedure: Cell Plates were Prepared According to the Methods of Example 8 Using Caco-2 Cells from American Type Culture Collection at Passage 37.
as §1
The test compounds and folic acid (1 μM) substrate solutions were prepared by diluting with pH 5.5 buffer. Next, the test compounds and folic acid (1 μM) substrate solution+positive control inhibitor (pemetrexed, 50 μM) were prepared. For the solution without inhibitor, DMSO was diluted with corresponding substrate solution to get the working incubation solution.
For the solution with inhibitor, the pre-incubation solution was prepared by adding the positive control inhibitor (pemetrexed, 50 μM) in pH 5.5 buffer. For the solution without inhibitor, DMSO was diluted with pH 5.5 buffer and used as the vehicle control.
When the 8-10 day Caco-2 cultured cells reached confluence and were differentiated, they were ready to be used for transport studies. The Caco-2 plate was removed from the incubator, and the medium was removed from the 24-well Plates. Next, cells were washed 3 times with 300 μL of pre-warmed pH 5.5 buffer. Then, 300 μL of pre-incubation solution was added into each well and the plate was placed at 37° C. for 30 minutes. The assay was performed in duplicate. After 30 minutes pre-incubation, the pre-incubation solution was aspirated, and 300 μL of pre-warmed working incubation solution was added to start the transporter assay. After 6 minutes incubation, cells were washed by quickly adding/aspirating 300 μL of ice-cold pH 5.5 buffer 4 times. The pH 5.5 buffer was removed and 300 μL of pure water was added into each well. Freeze-thaw in liquid nitrogen and 37° C. incubator was repeated for 3 times to lyse cells. After, centrifugation at 3,300 g was performed for 30 seconds. Next, 50 μL of supernatant was transferred to 200 μL methanol or acetonitrile containing internal standard and centrifuged at 3,300 g for 30 minutes. 200 μL aliquots of the supernatants were used for LC-MS/MS analysis. Standards were treated the same as samples.
A BCA Kit was used to determine the protein content for each well. Bovine serum albumin at 2, 1, 0.5, 0.25, 0.125, 0.0625, 0.0313, 0.0156, 0.00781 and 0.00391 mg/mL was prepared in Phosphate Buffer Saline (PBS, pH 7.4). 10 μL of supernatant was mixed from the previous step with the same volume of PBS. 20 μL of standard or test sample was added into 96-well clear plate and mixed with 200 μL working reagent. After 30 minutes incubation at 37° C., the absorbance at 562 nm was measured on the microplate reader.
Standard-curves: prepared 200 μM DMSO Folic acid solution, samples of 1000 nm, 300 nm, 100 nm, 30 nM, and 10 nM prepared using a PH 5.5 buffer, and a PH 5.5 buffer containing 50 μM of pemetrexed, respectively.
All calculations were carried out using Microsoft Excel. Peak areas were determined from extracted ion chromatograms. Uptake rate, in unit of pmol/mg protein/min, is calculated using the following equation: Uptake rate=Conc./(Protein×Time); Conc. is concentration of drug in cell lysate (nM), Protein is the protein concentration of cell lysate (mg/mL), and Time is the incubation time (minute). Uptake ratio is calculated using the following equation: Uptake ratio=Uptake rate without inhibitor/Uptake rate with inhibitor. Note: The compound was considered as a potential substrate of a particular transporter when the uptake ratio was greater than 2.

[3] = target: T1, Folate Uptake Transporter (PCFT) in Caco2 cells; experiment: as above; assay type: in vitro ADME; conditions: positive control, test conc. 0.01 μM, radiolabelled
[4] = [3H]-folic acid 10 nM, 30 min pre-incubation, 6 min incubation

Compound	inhibition at 50 µM [1, 4]	effect on folate transport / uptake ([1]; pH 5.5)	cell permeability [2]	Uptake Ratio(−Inhibitor/+Inhibitor) [2]	Percentage inhibition (%) ([1]; test conc. 50 μM, [3H]-folic acid 10 nM, pH 5.5, 30 min pre-incubation, 6 min incubation)	Uptake Rate (pmol/mg protein/min) ([3]; DMSO (no inhibitor))	Uptake Ratio(−Inhibitor/+Inhibitor) ([3]; pemetrexed 50 μM)	Uptake Rate (pmol/mg protein/min) ([3]; with pemetrexed 50 μM)
Nc1nc2[nH]cc(CCc3ccc(C(=O)N[C@@H](CCC(=O)O)C(=O)O)cc3)c2c(=O)[nH]1 [Pemetrexed, reference compound]	62.4%	–	–	–	–	–	–	–
Cc1cccc(-c2noc(C3Cc4nc[nH]c4CN3C(=O)Nc3cccc(F)c3)n2)c1 (stereo not shown) [MPOL_D_2, N-(3-fluorophenyl)-6-(3-(m-tolyl)-1,2,4-oxadiazol-5-yl)-3,4,6,7-tetrahydro-5H-imidazo[4,5-c]pyridine-5-carboxamide]	-18.7%	promoted folate transport	highly permeable	0.86	–	–	–	–
Cc1ccc(NC(=O)N2Cc3[nH]cnc3CC2c2nc(-c3ccc4c(c3)OCO4)no2)cc1 (stereo not shown) [MPOL_D_1, 6-(3-(benzo[d][1,3]dioxol-5-yl)-1,2,4-oxadiazol-5-yl)-N-(p-tolyl)-3,4,6,7-tetrahydro-5H-imidazo[4,5-c]pyridine-5-carboxamide]	25.5%	inhibit folate uptake	highly permeable	1.02	25.25%	–	–	–
Folic acid [3,5,7,9-3H] sodium salt	–	–	–	–	–	0.02 pmol/mg protein/min	2.66	0.01 pmol/mg protein/min
